Reference: patent publication US20040037806A1, “Aldosterone blocker therapy to prevent or treat inflammation-related disorders” (Pharmacia Corporation, priority 2002, published 2004)
Entries after “also recorded” stand apart in the source; their conditions may differ.

Legend:
Format in all cases: in vivo, rat
[1] = Assay B: aldosterone infusion model, systolic blood pressure by radio-telemetry; details: uni-nephrectomized Sprague Dawley rats, 1% NaCl, aldosterone 0.75 mg/hr sc, 4 weeks, eplerenone 100 mpk p.o
Method: (§1) Assay B: In Vivo Aldosterone Infusion Model
Male Sprague Dawley rats (n=39; BW=250 g)
Uni-nephrectomy performed during implantation of mini-pumps
2. Aldosterone (0.75 mg/hr, sc via alzet minipump)
1. Aldosterone (0. 75 mg/hr, sc via alzet minipump)+0.6% KCl in the drinking fluid
Groups 1, 2 and 3 received only 0.3% KCl in the drinking solution
SBP measured by radio-telemetry probes inserted in the abdominal aorta

[2] = system: Osteopontin, ED-1, CD-3, ICAM-1, VCAM-1; assay: Assay C: immunohistochemistry of myocardial tissue; details: aldosterone+salt alone or with eplerenone 100 mg/kg/day
Method: The procedure of Assay B was expanded upon in a further study. […] Myocardial tissue from animals in each treatment group was examined after 7, 14, or 30 days of treatment. […] Lesions were preceded by the expression and progressive upregulation of proinflammatory molecules.
Potassium chloride supplementation was added to the saline solution in order to prevent the potential hypokalemia associated with aldosterone excess.
Treatment At the time of the surgery, an Alzet 2002 osmotic minipump (Alza Corp., Palo Alto, Calif.) containing either vehicle (9% ethanol/87% propylene glycol/4% dH2O) or 1.0 mg/mL d-aldosterone (Sigma Chemical, St. Louis, Mo.) was inserted subcutaneously at the nape of the neck. Aldosterone was administered at a dose of 0.75 µg/hour. […] Animals were sacrificed from each group (n=8-13) after 7, 14, or 30 days of treatment.
Five μm sections were deparaffinized in xylene (two, 5-10 min incubations) and rehydrated by 3 min incubations in ethanol as follows: two incubations in 100% ethanol followed by two incubations in 95% alcohol and one incubation in 70% alcohol. Once hydrated, sections were rinsed in tap water for 1 min and distilled water for 1 min. Endogenous peroxide activity was blocked by placing slides in 3.0% H2O2 for 15 min followed by a 5 min rinse in distilled water. Slides were processed for antigen retrieval using citric acid, pH6.0. […]

[3] = Assay C: histopathologic analysis, semi-quantitative myocardial injury score 0 to 4; details: 7, 14 and 30 days; aldosterone+salt alone or with eplerenone 100 mg/kg/day
Method: The procedure of Assay B was expanded upon in a further study. […] Myocardial tissue from animals in each treatment group was examined after 7, 14, or 30 days of treatment. […] Lesions were preceded by the expression and progressive upregulation of proinflammatory molecules. […] Prior to surgery the animals were individually weighed and placed in one of the following groups: […] Potassium chloride supplementation was added to the saline solution in order to prevent the potential hypokalemia associated with aldosterone excess. Treatment At the time of the surgery, an Alzet 2002 osmotic minipump (Alza Corp., Palo Alto, Calif.) containing either vehicle (9% ethanol/87% propylene glycol/4% dH2O) or 1.0 mg/mL d-aldosterone (Sigma Chemical, St. Louis, Mo.) was inserted subcutaneously at the nape of the neck. Aldosterone was administered at a dose of 0.75 µg/hour. […] Animals were sacrificed from each group (n=8-13) after 7, 14, or 30 days of treatment. The equatorial regions of the heart were routinely processed into paraffin with an automated tissue processor (Hypercenter XP, Shandon/Lipshaw Inc., Pittsburgh, Pa.) and embedded into fresh paraffin apical side down (Shandon Embedding Center, Shandon/Lipshaw Inc.). […] Semi-quantification of myocardial injury was performed as described previously with minor modifications (7). […]

[4] = system: osteopontin; assay: Assay B: osteopontin immunohistochemistry in the heart; details: aldosterone-infused, saline-drinking, uninephrectomized rats, eplerenone 100 mpk p.o, increased dietary potassium
Method: as §1
Determination of osteopontin and COX-2 was performed by quantitative RT-PCR (Taqman). Osteopontin was also identified in the heart by immunohistochemistry.

SMILES	Systolic blood pressure [1]	Systolic blood pressure ([1]; listed as Eplerenone)	Immunohistochemical staining of marker proteins in myocardial tissue [2]	Myocardial tissue damage (histopathology) [3]	Osteopontin expression in the heart (immunostaining) [4]	Osteopontin expression in the heart (immunostaining) ([4]; listed as Eplerenone)
COC(=O)[C@@H]1CC2=CC(=O)CC[C@]2(C)[C@@]23O[C@@H]2C[C@@]2(C)[C@@H](CC[C@@]24CCC(=O)O4)[C@H]13 [eplerenone]	depression of this elevation	significantly reduced, but did not normalize blood pressure	markedly blunted	markedly attenuated myocardial injury at all time points	prevention by eplerenone of induction of osteopontin expression; also recorded: prevention by eplerenone of osteopontin upregulation	prevented the expression of osteopontin
C[C@]12CCC(=O)C=C1CC[C@@H]1[C@@H]2[C@@H](O)C[C@]2(C=O)[C@@H](C(=O)CO)CC[C@@H]12 [aldosterone]	increased; also recorded: systolic blood pressure elevation		Significant expression of osteopontin	No vascular or myocardial lesions; also recorded: focal arterial and myocardial alterations were observed starting at 14 days	clearly identified in the media of coronary arteries	
